Assay [1] addresses T1, human EP2 receptor (Homo sapiens, UniProt P43116).
T1 construct: purchased Millipore
Put plainly: EP2 binding assay (PGE2 displacement). Conditions: recombinant human EP2 membranes, 1 nanoM [3H]-PGE2; reported as range bins; read-out: EP2 binding (PGE2 displacement) pIC50 (-log IC50) (converted). As for the experimental part:
Method for Measuring Inhibition of PGE2 Binding to the Human Prostanoid Receptor EP2:
Human EP2 receptor equilibrium competition binding assays were performed according to Abramovitz et al. (M. Abramovitz et al. 2000, Biochimica et Biophysica Acta 1483: 285-293) in a final incubation volume of 100 microL in 50 milliM Bis-Tris, pH6.0 in 96-well plates. Radiolabelled Prostaglandin E2 (PGE2) (1 nanoM [^3H]-PGE2 purchased from Perkin Elmer) was added to the assay as competitive ligand. Test compounds stored as Dimethylsulfoxide (DMSO) stock solutions were added to the assay in serial dilutions in assay buffer while keeping the final DMSO concentration equal in each sample. The reaction was initiated by addition of membrane proteins harbouring human EP2 receptor (ChemiSCREEN™ membrane preparation recombinant human EP2 prostanoid receptor that was purchased by Millipore). Total binding was determined in the absence of test compound or PGE2 and non-specific binding was determined in the presence of 1 microM PGE2. Incubations were conducted for 60 minutes at room temperature until equilibrium was reached and terminated by filtration through GF/B filter (Perkin Elmer) prewetted with 0.3% PEI solution. Unbound radiolabelled PGE2 was removed by 8 wash cycles with the same buffer under ice-cold conditions and the filters containing the residual radioactivity were dried for 60 minutes at 60° C. In order to measure the filter bound radioactivity, 40 microL microscint (scintillation liquid) was added to each filter and the chemiluminescence was determined by TopCount-NTX™. The specific binding was calculated by subtracting non-specific binding from each sample. Percent inhibition by test compounds was calculated based on specific binding without test compound. Each sample was measured in triplicates per experiment and for the calculation of the pIC50 at least 2 independent experiments were performed. Determination of half maximal inhibiting concentration (IC50) was performed with GraphPad Prism Software.
The numbers of the compounds correspond to the examples numbers.
EP2 Binding Assay (PGE2 Displacement): pIC50 Values

Assay [2] concerns TNFalpha release in human peripheral blood mononuclear cells (PBMC) stimulated with LPS. Put plainly: Inhibition of LPS induced TNFalpha release in human PBMCs. As to conditions: 1 ng/mL LPS, 24 hours, reported as range bins, read-out: Inhibition of LPS induced TNFalpha release in human PBMCs pIC30 (-log IC30). Format: cell-based. Here is the method:
Method for Measuring the Inhibition of TNFalpha Release in Human Peripheral Blood MononuClear Cells (PBMC) Stimulated with LPS:
Assay was performed with some modifications of the method described by Hatzelmann and Schudt (Hatzelmann and Schudt 2001, J. Pharmacol. Exp. Therapeutics 297: 267-279) and the protocol “drawing of venous blood from healthy volunteers for in vitro studies” was approved by the ethics committee of the Landesärztekammer Baden Württemberg in Stuttgart. Peripheral blood mononuclear cells (PBMCs) were isolated from venous blood with the anticoagulant citrate from healthy donors according to standard protocols using Ficoll. The cell layer of PBMCs were washed twice with phosphate buffer solution and equilibrated at room temperature for 60 minutes. 500,000 PBMCs in 180 microL RPMI1640 cell medium supplemented with 10% FCS, NEAA (Non-essential-amino-acids), L-Glutamine and Sodium Pyruvate per sample were pre-incubated with 10 microL of a serial dilution of test compound or piclamilast as positive control for 60 min. at 37° C. After pre-incubation blood samples were stimulated by the addition of 10 microL LPS (Sigma, Aldrich) per sample resulting in a final concentration of 1 ng/mL LPS and a final volume of 200 microL. Cells were incubated for 24 hours at 37° C. TNFalpha levels were determined from cell supernatant that was obtained by a centrifugation step and transferring the supernatant to a new 96-well plate. Content of TNFalpha was determined via alphaLISA Technology according to manufacture protocol (Perkin Elmer).
PBMC samples that were not stimulated with LPS were used as control and set for 100% inhibition. PBMC samples that were stimulated with LPS and solvent instead of test compound were set as 0% inhibition. Percent inhibition was calculated based on these controls for each sample and since most compounds achieved saturating maximal inhibition of 60% a pIC30 value was calculated with GraphPad Prism Software.
For the following compounds the inhibitory values of TNFalpha release [determined as −log IC30=pIC30] in human PBMCs between 5.0 and 5.9, between 6.0 and 6.9, between 7.0 and 7.9 and between 8.0 and 9.0 have been determined. The numbers of the compounds correspond to the examples numbers.
Inhibition of LPS Induced TNFalpha Release Assay in Human PBMCs: pIC30

For assay [3], the target named is T2, human prostanoid receptor EP2 (Homo sapiens, UniProt P43116).
T2 construct: expressed in transfected cells; host or cells: CHO-K1 (CHOp6CreLuc-huEP2)
Put plainly: EP2 cAMP release assay in CHOp6CreLuc-huEP2 cells (CRE-luciferase readout). Conditions: CHOp6CreLuc-huEP2 cells, 4 hours at 37° C.; reported as range bins; read-out: EP2 cAMP release assay pEC50 (-log EC50) (converted). The assay is classed as cell-based. Here is the method: Method for Measuring cAMP Release in Human EP2 Stably Transfectant Cells:
The potency and efficacy of EP2 agonists have been determined via measuring cAMP release in stably transfectant CHO-K1 cell expressing the human prostanoid receptor EP2 and luciferase enzyme regulated via a 6 times CRE (cAMP response element) containing transcriptional promoter. CHOp6CreLuc-huEP2 cells were seeded into 384-well plate (1000 cells per well) in DMEM/F12 (Dulbecco's Modified Eagle Medium/Nutrient Mixture F12) cell culture medium containing 2% FCS (Fetal Calf Serum) and 500 μg/ml G418 24 hours prior to the experiment. Test compound was added as serial dilutions while keeping the final DMSO concentration constant in each well. […] Cells were incubated together with test compound or butaprost for 4 hours at 37° C. The cAMP release was determined indirectly via luciferase activity that directly correlated to the amount of luciferase enzyme expressed in response to cAMP regulated promoter activity. The luciferase activity was determined by addition of luciferin containing buffer and subsequent quantification of resulting luminescence. Each sample was measured in quadruplicates per experiment and half-maximal effective concentration (EC50) and relative maximal effect compared to butaprost was determined from 3 independent experiments with GraphPad Prism Software. A compound that achieved over 80% of the maximal effect of butaprost was considered as full agonist.
For the following compounds the potency was determined in the cAMP release assay applying human EP2 transfectant CHOp6CreLuc-huEP2 cells. […] The numbers of the compounds correspond to the examples numbers.
EP2 cAMP Release Assay: pEC50

In assay [4] the test system is TNFalpha release in human whole blood stimulated with LPS. Put plainly: Inhibition of LPS induced TNFalpha release in human whole blood. The assay is classed as cell-based. Conditions: 1 microg/mL LPS, 4 hours, reported as range bins, read-out: Inhibition of LPS induced TNFalpha release in human whole blood pIC30 (-log IC30). Here is the method:
Method for Measuring the Inhibition of TNFalpha Release in Human Whole Blood Stimulated with LPS:
Assay was performed with some modifications of the method described by Hatzelmann and Schudt (Hatzelmann and Schudt (2001) JPET 297: 267-279) and the protocol “drawing of venous blood from healthy volunteers for in vitro studies” was approved by the ethics committee of the Landesärztekammer Baden Württemberg in Stuttgart.
Heparinised venous blood was equilibrated to assay conditions for 1 hour at room temperature upon blood drawing. Immediately thereafter, 200 microL whole blood per sample were pre-incubated with 25 microL of a serial dilution of test compound or piclamilast as positive control for 30 min. at 37° C. After pre-incubation blood samples were stimulated by the addition of 25 microL lipopolysaccharide (LPS) (Sigma, Aldrich) per sample resulting in a final concentration of 1 microg/mL LPS and a final volume of 250 microL. Cells were incubated for 4 hours at 37° C. TNFalpha levels were determined from plasma that was obtained by a centrifugation step and transferring the supernatant to a new 96-well plate which was again centrifuged and clear plasma supernatant was used for the measurement of TNFalpha via alphaLISA Technology according to manufacture protocol (Perkin Elmer).
Whole blood samples that were not stimulated with LPS were used as control and set for 100% inhibition. Whole blood samples that were stimulated with LPS and solvent instead of test compound were set as 0% inhibition. Percent inhibition was calculated based on these controls for each sample and since most compounds achieved saturating maximal inhibition of 60% a pIC30 value was calculated with GraphPad Prism Software.
For the following compounds the inhibitory values of TNFalpha release [determined as −log IC30=pIC30] in the human whole blood assay between 4.5 and 4.9, between 5.0 and 5.9 and between 6.0 and 6.9 have been determined. The numbers of the compounds correspond to the examples numbers.
Inhibition of LPS Induced TNFalpha Release Assay in Human Whole Blood: pIC30

Results on 4 molecules are retold here after patent US9309187B2, “EP2 receptor agonists” (TAKEDA GMBH, priority 2012, dated 2016).

T2 sequence (P43116 whole entry): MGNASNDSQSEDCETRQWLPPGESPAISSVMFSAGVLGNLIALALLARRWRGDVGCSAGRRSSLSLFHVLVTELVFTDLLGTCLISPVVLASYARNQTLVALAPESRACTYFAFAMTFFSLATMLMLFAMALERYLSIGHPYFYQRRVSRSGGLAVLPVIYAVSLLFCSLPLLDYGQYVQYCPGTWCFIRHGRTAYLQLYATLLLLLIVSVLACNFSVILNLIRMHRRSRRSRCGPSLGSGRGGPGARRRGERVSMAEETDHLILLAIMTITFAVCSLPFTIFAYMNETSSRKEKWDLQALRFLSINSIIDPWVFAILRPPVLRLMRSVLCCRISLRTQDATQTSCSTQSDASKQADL
T1 sequence (P43116 whole entry): as above

For the molecule `O=C(O)/C=C/c1ccc(F)c(NC(=O)c2cc(-c3ccccc3CO)cc3ccccc23)c1` [Example 13, (2E)-3-{4-fluoro-3-[({3-[2-(hydroxymethyl)phenyl]naphthalen-1-yl}carbonyl)amino]phenyl}prop-2-enoic acid], the IC50 in assay [1] is 1.26 to 10 nM. For the same molecule, the IC30 in assay [2] and in assay [4] was 0.126 to 1 µM each time. For the same molecule, the EC50 in assay [3] was 0.126 to 1 nM.

As for `O=C(O)/C=C/c1ccc(F)c(NC(=O)c2cc(-c3cc(O)cc(F)c3)cc3ccccc23)c1` [Example 15, (2E)-3-[4-fluoro-3-({[3-(3-fluoro-5-hydroxyphenyl)naphthalen-1yl]carbonyl}amino)phenyl]prop-2-enoic acid], in assay [1], the IC50 was 1.26 to 10 nM. For the same molecule, the IC30 in assay [2] lay within 0.001 to 0.01 µM; in assay [4] it was 1.26 to 10 µM. In addition, the EC50 in assay [3] is 0.00631 to 0.1 nM.

For `O=C(O)/C=C/c1cccc(NC(=O)c2cc(-c3cccc(O)c3)cc3ccccc23)c1` [Example 19, (2E)-3-[3-({[3-(3-hydroxyphenyl)naphthalen-1-yl]carbonyl}amino)phenyl]prop-2-enoic acid], in assay [1], the IC50 was 1.26 to 10 nM. Moreover, the results for the IC30 in assay [2] and in assay [4] were 0.0126 to 0.1 µM and 0.126 to 1 µM, respectively. In assay [3], the EC50 is 0.00631 to 0.1 nM.

For `O=C(O)/C=C/c1ccc(F)c(NC(=O)c2cc(N3CCCCC3)cc3ccccc23)c1` [Example 22, (2E)-3-[4-fluoro-3-({[3-(piperidin-1-yl)naphthalen-1-yl]carbonyl}amino)phenyl]prop-2-enoic acid], the IC50 in assay [1] was 12.6 to 100 nM. Moreover, the IC30 in assay [2] was in the range of 0.0126 to 0.1 µM; in assay [4], 1.26 to 10 µM. The EC50 in assay [3] is 0.126 to 1 nM.
